Measurements taken from patent US20070037253A1, “Methods and compositions for treatment of arthritis and cancer” (priority 2003, published 2007).
Entries after “also recorded” stand apart in the source; their conditions may differ. Where a SMILES comes first, the peptide text is derived from it.

What was measured:
sPLA2 gene transcript = experiment: QRT-PCR relative mRNA expression in IL-1β-stimulated rabbit synovial fibroblasts; assay type: cell-based
Source text: (§1) FIG. 5 is a view of the effect of peptide on the relative expression of MMP and sPLA2 genes. QRT-PCR was used for assessing relative mRNA expression levels of IL-1β-stimulated rabbit synovial fibroblast cells in the presence and absence of the candidate lead peptide PIP [59-67] dimer. The amount of each mRNA was obtained by quantitative RT-PCR. The relative levels of gene expression were normalized to the housekeeping gene (GAPDH). […] Values are expressed as ±S.E.
(§2) RNA isolation of cultured FLSCs: FLSCs were grown to 80% confluence on 12-well culture dishes and starved in a serum-free medium with 5 μM PIP [59-67] dimer for 2 h. The cells were then stimulated with 5 ng/mL IL-1β (Recombinant human, Chemicon, USA.) for 24 h, washed with cold PBS and total RNA isolated from peptide-treated (n=3) and untreated (n=3) FLSCs using RNeasy® mini kit. The RNA samples were subsequently treated with RNase-free Dnase-I at room temperature for 20 min and stored at −80° C. until use. The quality and quantity of extracted RNA was determined by spectrophotometry (Bio-Rad, USA). All RNA samples used for QRT-PCR experiments were of highest purity with A260/A280 ratios of 1.9-2.1. The integrity and relative contamination with residual genomic DNA was assessed by 1% denaturing agarose gel electrophoresis.
(§3) Quantitative Real Time RT-PCR (LightCycler): Quantitative fluorescence-based real-time PCR was carried out according to the manufacturer's instructions using the LightCycler system with LightCycler FastStart DNA Master^PLUS SYBR Green I kit (Roche Diagnostics, Germany) as an independent method for assessing relative gene expression. Reverse Transcription (RT) of RNA and QRT-PCR were performed as follows: single stranded cDNA was generated from 3 μg of total RNA, 200 μM nucleotides, 500 units Superscript II reverse transcriptase (Invitrogen) and 1.5 μM oligo(dT)15 primers in 50 μL reactions. Reverse transcription was stopped after 1 hr by heating to 95° C. for 5 min. The primers were designed by Primer3 software: http://bioinformatics.weizmann.ac.il/cgi-bin/primer/primer3.cgi and subsequently checked for specificity using BLAST: http://www.ncbi.nlm.nih.gov/genome/seq/HsBlast.htmL. All primers and probes were synthesized by 1st BASE Pvt. Ltd., Singapore. The expression of GAPDH was used as an internal calibrator for equal RNA loading and to normalize relative expression data for all other genes analyzed. The copy ratio of each analyzed cDNA was determined as the mean of 3 experiments. The real-time quantitative RT-PCR data were quantified using relative quantification (2^−ΔΔCT) method as described [Livak, K. J, and Schmittgen, T. D. (2001) Analysis of relative gene expression data using real-time quantitative PCR and the 2(-Delta Delta C(T)) method.

MMP-1 gene transcript = experiment: as above; assay type: cell-based
Source text: as §1, §2, §3

TIMP-1 gene transcript = experiment: as above; assay type: cell-based; conditions: 5 μM peptide, IL-1β-induced
Source text: as §1, §2, §3

MMP-9 gene transcript = experiment: as above; assay type: cell-based
Source text: as §1, §2, §3

TIMP-2 gene = experiment: as above; assay type: cell-based; conditions: co-treatment with peptide, IL-1β-induced, normalized to GAPDH
Source text: as §1, §2, §3

MMP-2 gene transcript = experiment: as above; assay type: cell-based
Source text: as §1, §2, §3

MMP-2 = molecular target: T1, MMP-2 (Homo sapiens, UniProt P08253); experiment: Gelatin zymography of human synovial fluid pre-incubated with inhibitors; assay type: biochemical; conditions: 5 or 10 μM, pre-incubated 37° C. 1 h
T1 construct: from tissue; host or cells: human synovial fluid
T1 sequence (P08253 110-660): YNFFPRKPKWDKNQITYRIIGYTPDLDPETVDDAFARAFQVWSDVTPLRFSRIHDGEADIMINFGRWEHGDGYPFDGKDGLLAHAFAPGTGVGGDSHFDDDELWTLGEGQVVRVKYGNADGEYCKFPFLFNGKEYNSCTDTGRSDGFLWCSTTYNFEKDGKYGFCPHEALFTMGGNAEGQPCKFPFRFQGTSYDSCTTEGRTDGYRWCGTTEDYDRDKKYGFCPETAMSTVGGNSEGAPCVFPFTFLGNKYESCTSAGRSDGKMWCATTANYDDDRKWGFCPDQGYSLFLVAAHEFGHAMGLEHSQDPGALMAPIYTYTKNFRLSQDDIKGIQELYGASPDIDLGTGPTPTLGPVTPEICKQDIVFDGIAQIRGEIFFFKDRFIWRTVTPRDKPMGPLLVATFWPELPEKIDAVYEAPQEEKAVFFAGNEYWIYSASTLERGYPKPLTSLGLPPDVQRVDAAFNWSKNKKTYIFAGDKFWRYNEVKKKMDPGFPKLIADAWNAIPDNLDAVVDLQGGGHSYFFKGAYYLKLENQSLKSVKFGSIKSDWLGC
Procedure: (§4) (A) Samples containing human synovial fluid (5 μL) and 5 or 10 μM of peptides were pre-incubated at 37° C. for 1 h in Tris-HCl buffer prior to electrophoresis on 10% SDS-PAGE gel containing gelatin (0.1%). […] (B) The mean density (OD/mm2)±SD (n=3), representing MMP-2 activity, obtained by scanning the zymograms using the GS-710 calibrated imaging densitometer (Bio Rad, USA).
(§5) Gelatin zymography: human synovial fluid, purified human recombinant MMP-2 and -9 or APMA-activated concentrated culture supernatant samples (10 μL) was mixed (1:1) with Laemmli sample buffer, loaded on 4% acrylamide stacking gel and electrophoresed (120 V) at 4° C. on a 10% acrylamide-resolving minigel containing 0.1% gelatin. After electrophoresis for 1 h, the gels were soaked in 2.5% Triton X-100 on a shaker for 1 h, changing the solution after 30 min, to eliminate SDS. After overnight incubation in zymogen activation buffer [50 mM Tris-HCl, pH 7.5, containing 10 mM CaCl2 and 5 mM ZnCl2] at 37° C., the gels were rinsed in distilled water, and stained for 3 hr with […], after which clear bands of digested gelatin were clearly visible. The gels were briefly rinsed in distilled water and scanned by the Bio-Rad GS-710 Calibrated Imaging Densitometer.

MMP-9 = molecular target: T2, MMP-9 (Homo sapiens, UniProt P14780); experiment: as above; assay type: biochemical; conditions: co-incubated 1 h
T2 construct: Samples containing human synovial fluid (5 μL) and 5 or 10 μM of peptides were pre-incubated; from tissue; host or cells: human synovial fluid
Procedure: as §4, §5

[1] = 5 μM peptide, IL-1β-induced, normalized to GAPDH
[2] = IL-1β-stimulated rabbit synovial fibroblasts in culture

T2 sequence (P14780 94-707): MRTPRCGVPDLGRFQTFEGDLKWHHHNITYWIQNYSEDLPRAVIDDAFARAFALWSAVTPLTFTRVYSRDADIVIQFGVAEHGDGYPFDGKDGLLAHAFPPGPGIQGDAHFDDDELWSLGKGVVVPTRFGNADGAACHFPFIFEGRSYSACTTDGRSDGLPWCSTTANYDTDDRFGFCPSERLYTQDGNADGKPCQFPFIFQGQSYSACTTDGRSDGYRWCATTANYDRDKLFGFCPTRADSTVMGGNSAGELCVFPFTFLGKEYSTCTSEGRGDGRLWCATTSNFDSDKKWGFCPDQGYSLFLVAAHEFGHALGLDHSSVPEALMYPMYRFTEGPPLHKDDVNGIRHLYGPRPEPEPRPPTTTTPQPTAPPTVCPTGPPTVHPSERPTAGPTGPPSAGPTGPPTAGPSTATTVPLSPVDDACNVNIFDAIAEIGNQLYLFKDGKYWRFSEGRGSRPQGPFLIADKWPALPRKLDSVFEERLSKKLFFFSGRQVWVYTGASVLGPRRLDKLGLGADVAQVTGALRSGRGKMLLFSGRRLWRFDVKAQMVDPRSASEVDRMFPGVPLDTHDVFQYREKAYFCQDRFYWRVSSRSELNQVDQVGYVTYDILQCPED

In the case of `CC[C@H](C)[C@H](NC(=O)[C@H](CC(=O)O)NC(=O)[C@@H](N)C(C)C)C(=O)N[C@@H](Cc1c[nH]cn1)C(=O)N[C@H](C(=O)N[C@@H](Cc1c[nH]c2ccccc12)C(=O)N[C@@H](CC(=O)O)C(=O)NCC(=O)N[C@H](C(=O)N[C@H](C(=O)N[C@@H](CC(=O)O)C(=O)N[C@H](C(=O)N[C@@H](Cc1c[nH]cn1)C(=O)N[C@H](C(=O)N[C@@H](Cc1c[nH]c2ccccc12)C(=O)N[C@@H](CC(=O)O)C(=O)NCC(=O)N[C@H](C(=O)O)C(C)C)C(C)C)[C@@H](C)CC)C(C)C)C(C)C)C(C)C` [PIP [59-67] dimer] (H-VDIHVWDGVVDIHVWDGV-OH; N-terminus and C-terminus assumed), the “sPLA2 mRNA expression level” value (sPLA2 gene transcript; [1]) is reported as “significantly inhibited; also recorded: significantly suppressed”, the “decrease of sPLA2 mRNA expression” value (sPLA2 gene transcript; [2]) is reported as over 1 fold and the “MMP-1 mRNA expression level” value (MMP-1 gene transcript; [1]) is reported as “significantly inhibited; also recorded: significantly suppressed”. For the same compound, the “decrease of MMP-1 mRNA expression” value (MMP-1 gene transcript; [2]) was over 1 fold, the “TIMP-1 mRNA expression level” value (TIMP-1 gene transcript) was “significantly suppressed” and the “MMP-9 mRNA expression level” value (MMP-9 gene transcript; [1]) was “significantly inhibited; also recorded: significantly suppressed”. The “decrease of MMP-9 mRNA expression” value (MMP-9 gene transcript; [2]) was over 1 fold, the TIMP-2 gene expression (TIMP-2 gene) was “significantly inhibited” and the “MMP-2 mRNA expression level” value (MMP-2 gene transcript; [1]) was “significantly inhibited; also recorded: significantly suppressed”. The “decrease of MMP-2 mRNA expression” value (MMP-2 gene transcript; [2]) was over 1 fold, the “MMP-2 gelatinase activity (zymogram densitometry) vs control” value (MMP-2) was “did not show any significant difference from the control; also recorded: insignificant” and the “MMP-9 gelatinase activity vs control” value (MMP-9) was “insignificant”.
